# Source: patent EP4512427A1, “ANTIBODY-DRUG CONJUGATES BASED ON MOLECULAR GLUE DEGRADERS AND USES THEREOF” (Mablink Bioscience, priority 2023, dated 2025)
# Key:
# [1] = target: T1, MDR1 (Homo sapiens, UniProt P08183); test: MDR1 efflux substrate assay in MDCK-MDR1; type: in vitro ADME; settings: dog, MDCK-MDR1, 5µM, 60 min, pH 7.4
# T1 construct: host or cells: MDCK-MDR1 (Preadyport)
# Procedure: MDR1 and BCRP efflux substrate assays were conducted in MDCK-MDR1 and MDCK-BCRP in vitro models (Preadyport™, Solvo Biotech) at Symeres (Nederland). Compound of the invention (donor well concentration of 5µM) were incubated in cell monolayer 24-transwell Preadyport system, using Preadyport recommended pH 7.4 assay buffer (donor and receiver wells). After 60 min of incubation (no shaking), samples are collected and suspended into triple volume of 66% cold acetonitrile. Samples are stored at -20°C until thawed, centrifuged and analyzed by LC-MS. Quinidine was used a positive control for the MDR1 assay, and prazosin was used as a positive control for the BCRP assay. Exatecan was used as a control, known not to be an MDR1 substrate. Residual DMSO content from compounds stock solutions was below 1% (v/v). The assay was performed in duplicate. The quantification of test compounds in donor or receptor compartment is conducted using relative LC/MS peak areas (samples of initial incubation solutions are used as a single point calibrator), without any spiked standard samples. The data is used for estimating apparent permeability (Papp) and calculation of efflux ratio.
# [2] = system: OE-19; test: In vitro cytotoxicity assay (MTT); type: cell-based; settings: Homo sapiens, OE19, 144 h, 6 days incubation
# Outline: (§1)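 Cancer cell lines seeded (1000–10 000 cells/well), allowed 24 h at 37°C, then exposed to serial compound dilutions for 6 days at 37°C. Viability by MTT (1–4 h), formazan dissolved in acidified isopropanol, absorbance 570 nm (ref. 690 nm); IC50 from dose-response fit versus untreated cells.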
# [3] = system: A549; test: In vitro cytotoxicity assay (MTT); type: cell-based; settings: Homo sapiens, 144 h, 6 days incubation
# Outline: as §1
# [4] = system: BXPC3; test: In vitro cytotoxicity assay (MTT); type: cell-based; settings: Homo sapiens, BXPC-3, 144 h, 6 days incubation
# Outline: as §1
# [5] = system: HT-29; test: In vitro cytotoxicity assay (MTT); type: cell-based; settings: Homo sapiens, 144 h, 6 days incubation
# Outline: as §1
# [6] = system: MCF-7; test: In vitro cytotoxicity assay (MTT); type: cell-based; settings: Homo sapiens, MCF7, 144 h, 6 days incubation
# Outline: as §1
# [7] = system: HCT-116; test: In vitro cytotoxicity assay (MTT); type: cell-based; settings: Homo sapiens, 144 h, 6 days incubation
# Outline: as §1
# [8] = system: KB-1; test: In vitro cytotoxicity assay (MTT); type: cell-based; settings: Homo sapiens, KB16, 144 h, 6 days incubation
# Outline: as §1
# [9] = system: Caco-2; test: In vitro cytotoxicity assay (MTT); type: cell-based; settings: Homo sapiens, 144 h, 6 days incubation
# Outline: as §1
# [10] = in vitro; settings: PAMPA, pH 7.4
# Procedure: Stock solutions of compounds of the invention were prepared in dimethyl sulfoxide (DMSO) to a final concentration of 10 mM. Each stock solution was diluted to 50 µM in pH 7.4 Prisma HT buffer (pION) in the presence of 10% MeOH (v/v). 200 µL were added to each well of the donor plate in quintuplicate. […] The acceptor filter plate was carefully placed on top of the donor plate to form a "sandwich." The sandwich was incubated at 25°C for 5 h, at 300 rpm. UV-vis spectra of the solutions in the blank, reference, acceptor, and donor plates were measured using a Tecan Infinite 200 PRO M Nano Plus microplate reader.
# [11] = system: JIMT-1 cells; test: Cell cycle arrest assessment (propidium iodide); type: cell-based, human; settings: 24h at 2, 5, 10, and 50nM
# Procedure: 1×10^6 JIMT-1 cells were plated in 3mL of DMEM/FBS 90:10 (v/v) in 6-well plates and incubated overnight. Cells were treated with the compound 2384 of the invention or with CR8 for 24h. Cells were then harvested and washed three times with PBS. Cells were suspended into 300µL of propidium iodide working solution (0.05mg/mL) and incubated for 45 minutes at 4°C in the dark. Analysis was performed using a BD Fortessa flow cytometer controlled by BD FACSDiva software (BD Biosciences) and data were analyzed using FlowJo software (BD Bioscience).
# T1 sequence (P08183 whole entry): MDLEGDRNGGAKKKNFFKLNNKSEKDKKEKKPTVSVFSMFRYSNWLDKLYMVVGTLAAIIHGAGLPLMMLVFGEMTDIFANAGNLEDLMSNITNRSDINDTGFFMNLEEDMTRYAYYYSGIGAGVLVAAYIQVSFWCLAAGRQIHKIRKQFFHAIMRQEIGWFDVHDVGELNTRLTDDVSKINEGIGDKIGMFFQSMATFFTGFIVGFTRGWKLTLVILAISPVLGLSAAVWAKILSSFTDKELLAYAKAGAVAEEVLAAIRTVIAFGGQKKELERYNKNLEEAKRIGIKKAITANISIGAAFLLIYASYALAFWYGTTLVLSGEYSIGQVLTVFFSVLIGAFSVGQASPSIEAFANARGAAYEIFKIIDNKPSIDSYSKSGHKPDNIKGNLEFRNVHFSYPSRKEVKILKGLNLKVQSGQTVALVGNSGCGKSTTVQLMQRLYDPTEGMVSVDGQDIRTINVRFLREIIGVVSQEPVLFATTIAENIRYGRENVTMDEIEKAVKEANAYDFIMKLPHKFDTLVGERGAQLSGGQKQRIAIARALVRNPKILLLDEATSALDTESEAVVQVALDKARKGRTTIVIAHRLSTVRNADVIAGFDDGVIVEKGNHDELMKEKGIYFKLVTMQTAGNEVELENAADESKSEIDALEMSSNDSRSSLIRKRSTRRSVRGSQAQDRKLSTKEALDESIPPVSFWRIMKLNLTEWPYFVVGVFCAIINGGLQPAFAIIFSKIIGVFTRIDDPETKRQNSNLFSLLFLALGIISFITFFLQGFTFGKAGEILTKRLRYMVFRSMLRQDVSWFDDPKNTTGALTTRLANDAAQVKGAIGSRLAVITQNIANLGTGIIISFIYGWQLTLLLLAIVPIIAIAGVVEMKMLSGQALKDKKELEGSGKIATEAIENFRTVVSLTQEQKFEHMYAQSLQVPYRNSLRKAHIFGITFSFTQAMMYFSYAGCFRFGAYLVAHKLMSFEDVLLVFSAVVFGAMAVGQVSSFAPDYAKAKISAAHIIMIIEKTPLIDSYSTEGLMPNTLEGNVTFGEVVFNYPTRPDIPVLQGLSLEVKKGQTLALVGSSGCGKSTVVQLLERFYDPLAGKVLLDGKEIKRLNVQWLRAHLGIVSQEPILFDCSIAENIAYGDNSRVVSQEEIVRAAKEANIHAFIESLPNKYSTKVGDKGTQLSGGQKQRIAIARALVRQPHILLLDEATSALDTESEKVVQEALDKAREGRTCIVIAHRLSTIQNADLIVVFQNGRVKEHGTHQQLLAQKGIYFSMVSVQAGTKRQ
smiles,measurement,setting,value
N[C@H]1CC[C@H](Nc2nc(NCc3ccc(-c4ccccn4)cc3)n3ncc(Br)c3n2)CC1 [Compound 2384],"Papp A→B at 1 h, 5 µM",[1]; read-out: Papp A (donor) to B (acceptor),< 2.5 nm/s
same,"Papp B→A at 1 h, 5 µM",[1]; read-out: Papp B (acceptor) to A (donor),369 nm/s
same,IC50,[2],2.24 nM
same,IC50,[3],0.56 nM
same,IC50,[4],1.46 nM
same,IC50,[5],0.22 nM
same,IC50,[6],3.42 nM
same,IC50,[7],1.19 nM
same,IC50,[8],0.38 nM
same,IC50,[9],6.64 nM
same,"Papp at 5 h, 50 µM",[10],840 nm/s
same,cell cycle analysis,[11],arrest in the G2/M phase
